According to patent US10183013B2, “Cyclic sulfonamide containing derivatives as inhibitors of hedgehog signaling pathway” (NantBioScience, Inc., priority 2012, dated 2019):
Where two headings read alike, the source gives them in different places.

Assays:
[1] = tested on: Hedgehog signalling (Gli-bla NIH3T3 cells, mShh stimulated); assay: Hedgehog signalling inhibition assay (Gli-Bla reporter assay in NIH 3T3 cells); assay type: cell-based
Method: Hedgehog signalling inhibition assays. The following table 2 represents the average EC50 values for particular compounds of the inventions. Gli-bla NIH3T3 cells (7500 cells/well) were plated the day prior to the assay in a 384-well and 96-format in complete growth medium. […] Cells were stimulated with mShh for 24 hours and then loaded with LiveBLAzer™-FRET B/G Substrate for 3 hours. Emission values at 460 nm and 530 nm were obtained using a standard fluorescence plate reader and the 460/530 Ratios plotted for each treatment (n=4 for each data point).
J. Cancer, 2011, 30(7):472-81).

SMO = biological target: T1, SMO (Homo sapiens, UniProt Q99835); assay: SMO BODIPY-CYC binding assay using HEK293H cells
T1 construct: host or cells: HEK293H cells

[2] = Mus musculus, NIH3T3, 24 h, read-out: EC50

T1 sequence (Q99835 28-787): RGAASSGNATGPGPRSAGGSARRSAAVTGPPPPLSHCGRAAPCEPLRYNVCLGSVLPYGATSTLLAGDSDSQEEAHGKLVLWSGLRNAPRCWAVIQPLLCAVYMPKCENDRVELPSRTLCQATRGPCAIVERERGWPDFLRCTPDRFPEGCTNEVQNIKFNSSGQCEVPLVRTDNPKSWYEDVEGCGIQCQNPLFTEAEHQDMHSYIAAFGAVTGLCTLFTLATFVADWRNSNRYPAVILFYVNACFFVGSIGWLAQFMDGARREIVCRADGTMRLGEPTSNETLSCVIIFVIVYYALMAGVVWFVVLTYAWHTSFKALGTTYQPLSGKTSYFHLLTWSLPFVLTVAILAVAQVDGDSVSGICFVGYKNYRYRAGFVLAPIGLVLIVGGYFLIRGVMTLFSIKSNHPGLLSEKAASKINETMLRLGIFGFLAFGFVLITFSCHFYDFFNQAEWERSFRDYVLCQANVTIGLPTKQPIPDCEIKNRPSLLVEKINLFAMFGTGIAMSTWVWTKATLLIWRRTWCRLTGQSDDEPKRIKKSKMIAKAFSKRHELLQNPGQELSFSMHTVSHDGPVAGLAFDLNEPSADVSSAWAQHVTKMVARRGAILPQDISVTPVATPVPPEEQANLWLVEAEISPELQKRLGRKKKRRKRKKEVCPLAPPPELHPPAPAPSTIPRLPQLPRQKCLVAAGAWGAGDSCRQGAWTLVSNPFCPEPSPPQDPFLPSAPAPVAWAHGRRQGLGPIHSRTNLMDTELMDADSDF

Row | SMILES | EC50 [1, 2] [nM] | also measured
1 | O=C(Nc1ccc(Oc2cccc(Cl)c2)cc1)c1ccc(N2CCCS2(=O)=O)cc1Cl [Example 141] | < 10 | –
2 | O=C(Nc1ccc(Oc2cccc(Cl)c2)cc1)c1ccc(N2CCOCS2(=O)=O)cc1Cl [Example 142] | < 10 | –
3 | CC(=O)Nc1cc(NC(=O)c2ccc(N3CCOCS3(=O)=O)cc2Cl)ccc1Cl [Example 143] | < 10 | –
4 | CS(=O)(=O)c1ccc(C(=O)Nc2ccc(Cl)c(-c3ccccn3)c2)c(Cl)c1 [GDC-0449, reference compound] | – | EC50 ([1]; Mus musculus, NIH3T3, NIH 3T3 cells, read-out: Gli-Bla reporter assay (EC50)): 7 nM
5 | Cc1nn(-c2ccccc2)c(C)c1/C=N/N1CCN(Cc2ccccc2)CC1 [Sant-1, reference compound] | – | EC50 (SMO): 0.592 nM; EC50 ([1]; NIH 3T3 cells, read-out: Gli-Bla reporter assay (EC50)): 5 nM
